Data on one compound can be found in paper PMC10485906, “Development of a Dihydroquinoline–Pyrazoline GluN2C/2D-Selective Negative Allosteric Modulator of the N-Methyl-D-aspartate Receptor” (ACS Chemical Neuroscience, 2023).

For this assay, the target named is T1, -GABAC (Rattus norvegicus, UniProt P50572).
T1 construct: expressed in transfected cells; host or cells: Xenopus oocytes (cRNA injection)
Put plainly: Off-target, oocytes, GABAC. The format is cell-based. The following applies: 1 µM compound; 100 µM GABA. The protocol: Analysis of Off-target Actions
Compound (S)-(-)-2i was tested at 1 µM for actions at glycine-activated GluN1/GluN3A (human GluN1-F484A,T518L/GluN3A referred to a GluN1-FA,TL/GluN3A) and rat GluN1-4a/GluN3B in the presence of 0.5 µM CGP-78608. cRNA injection ratios for GluN1/GluN3 were 1:2. Compound (S)-(-)- 2i was also tested for actions at AMPA (rat GluA1, rat GluA2, human GluA3-L531Y), kainate (rat GluK2), nicotinic acetylcholine (rat α7 and α4β2, cRNA ratio 1:1), GABAA (rat α1β2γ2S, cRNA ratio 1:1:1), GABAC (rat ρ1), glycine (rat α1), and purinergic (human P2X) receptors expressed in Xenopus oocytes. cRNA encoding the receptor subunits was synthesized from linear template cDNA using the mMessage mMachine kit (Ambion). Oocytes were injected with 1-5 ng cRNA in a 50 nL volume and incubated in Barth's solution at 15°C for 2-5 days prior to recording. GluK2-expressing oocyte were incubated in 1 mg/ml (10 µM) concanavalin-A for 10 min prior to recording. The cDNAs encoding GABAC and glycine subunits were provided by Dr. D. Weiss (University of Texas Health Science Center at San Antonio). cDNAs encoding nicotinic acetylcholine receptor subunits were provided by Drs. […]
GABA. […] Responses in presence of test compound were expressed as a percent of control. […]

T1 sequence (P50572 22-480): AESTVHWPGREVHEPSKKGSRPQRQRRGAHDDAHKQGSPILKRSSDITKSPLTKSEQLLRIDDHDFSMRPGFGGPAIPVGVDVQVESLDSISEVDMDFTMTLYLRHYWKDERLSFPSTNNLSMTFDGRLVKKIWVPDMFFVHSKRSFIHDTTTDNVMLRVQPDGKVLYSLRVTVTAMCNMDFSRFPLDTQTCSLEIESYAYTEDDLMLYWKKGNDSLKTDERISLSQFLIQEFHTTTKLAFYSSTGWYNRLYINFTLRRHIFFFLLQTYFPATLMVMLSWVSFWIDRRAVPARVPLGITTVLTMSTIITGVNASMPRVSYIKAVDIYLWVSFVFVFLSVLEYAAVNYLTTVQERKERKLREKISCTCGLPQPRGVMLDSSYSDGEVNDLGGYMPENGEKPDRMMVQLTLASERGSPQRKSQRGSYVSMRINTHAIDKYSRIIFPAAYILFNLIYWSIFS

`O=C(O)CC(F)(F)C(=O)N1N=C(c2c(-c3ccc(Cl)cc3)c3ccccc3[nH]c2=O)C[C@H]1c1ccc(Cl)cc1` [(S)-(−)-2i]: the “% control -GABAC” value was 96 ± 1.2%.
